Measured values published in patent US6093838A, “Amines substituted with a dihydro-benzofuranyl or with a dihydro-isobenzofuranyl group, an aryl or heteroaryl group and an alkyl group, having retinoid-like biological activity” (Allergan Sales, Inc., priority 1999, dated 2000).

How the values were obtained:
RXRα [1] = target: T1, RXRα (Homo sapiens, UniProt P19793); assay: holoreceptor transactivation assay, RXRα; format: cell-based; settings: for EC50: holoreceptor transactivation, RXRα, read-out: RXR Trans. EC50 α; for Emax: relative to 10^-6 M cyclopropyl penta-2,4-dienoic acid reference (RXRs), read-out: % efficacy (RXRα transactivation)
T1 construct: expressed in transfected cells
T1 sequence (P19793 1-462): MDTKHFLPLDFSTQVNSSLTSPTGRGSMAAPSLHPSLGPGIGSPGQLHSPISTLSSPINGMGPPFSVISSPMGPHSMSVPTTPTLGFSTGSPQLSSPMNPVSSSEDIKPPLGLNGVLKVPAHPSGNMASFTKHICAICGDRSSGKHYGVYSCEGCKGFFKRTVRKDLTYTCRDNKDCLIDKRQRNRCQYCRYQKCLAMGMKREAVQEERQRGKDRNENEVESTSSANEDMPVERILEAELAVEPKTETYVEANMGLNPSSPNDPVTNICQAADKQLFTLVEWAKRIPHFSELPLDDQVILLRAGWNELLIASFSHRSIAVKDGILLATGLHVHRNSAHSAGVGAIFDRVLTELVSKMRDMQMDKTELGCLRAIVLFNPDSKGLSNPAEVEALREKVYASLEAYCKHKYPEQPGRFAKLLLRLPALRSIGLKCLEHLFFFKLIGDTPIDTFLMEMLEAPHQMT
Description: (§1) Other assays described below, measure the ability of the compounds of the present invention to bind to, and/or activate various retinoid receptor subtypes. When in these assays a compound binds to a given receptor subtype and activates the transcription of a reporter gene through that subtype, then the compound is considered an agonist of that receptor subtype. […] In the below described assays the ability of the compounds to bind to RARα, RARβ, RARγ, RXRα, RXRβ and RXRγ receptors, and the ability or inability of the compounds to activate transcription of a reporter gene through these receptor subtypes can be tested. […] However, some of the compounds of the invention may behave as retinoid antagonists or partial antagonists and/or as inverse agonists. Because of the complex distribution of the different retinoid receptors in various organs of the mammalian body partial agonists and partial antagonists and compounds which have the characteristics of both may lend themselves to particularly useful therapeutic applications and may avoid serious side effects of conventional retinoid drugs.
(§2) A holoreceptor transactivation assay and a ligand binding assay which measure the antagonist/agonist like activity of the compounds of the invention, or their ability to bind to the several retinoid receptor subtypes, respectively, are described in published PCT Application No. WO WO93/11755 (particularly on pages 30-33 and 37-41) published on Jun. 24, 1993, the specification of which is also incorporated herein by reference. A detailed experimental procedure for holoreceptor transactivations has been described by Heyman et al. Cell 68, 397-406, (1992); Allegretto et al. J. Biol. Chem. 268, 26625-26633, and Mangelsdorf et al. The Retinoids: Biology, Chemistry and Medicine, pp 319-349, Raven Press Ltd., New York, which are expressly incorporated herein by reference. The results obtained in this assay are expressed in EC50 numbers, as they are also in the chimeric receptor transactivation assay. The results of ligand binding assay are expressed in Kd numbers. (See Cheng et al. Biochemical Pharmacology Vol. 22 pp 3099-3108, expressly incorporated herein by reference.)
(§3) Table 1 discloses the activity of certain exemplary compounds of the invention in the above-described chimeric receptor transactivation assay, holoreceptor transactivation assay and a ligand binding assays. Particularly, the transactivation data pertaining to RAR receptors were obtained in the chimeric assay, and the data pertaining to transactivation of RXR receptors were obtained in the holoreceptor transactivation assay.

RARα = target: T2, RARα (Homo sapiens, UniProt P10276); assay: ligand binding assay, RARα; settings: read-out: RAR Bind. Ki α
T2 sequence (P10276 1-462): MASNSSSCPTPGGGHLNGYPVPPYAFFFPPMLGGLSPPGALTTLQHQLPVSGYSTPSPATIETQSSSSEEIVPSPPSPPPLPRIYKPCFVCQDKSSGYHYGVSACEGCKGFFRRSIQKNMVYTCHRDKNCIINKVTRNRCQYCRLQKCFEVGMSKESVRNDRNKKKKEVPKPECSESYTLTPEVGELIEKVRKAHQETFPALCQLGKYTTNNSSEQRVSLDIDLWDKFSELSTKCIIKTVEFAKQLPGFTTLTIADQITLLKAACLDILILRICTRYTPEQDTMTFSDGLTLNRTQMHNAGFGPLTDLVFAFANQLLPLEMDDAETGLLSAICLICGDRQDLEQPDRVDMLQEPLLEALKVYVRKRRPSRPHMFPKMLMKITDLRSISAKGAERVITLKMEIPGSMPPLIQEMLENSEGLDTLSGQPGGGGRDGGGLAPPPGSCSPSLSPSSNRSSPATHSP
Description: as §1, §2, §3

RARβ = target: T3, RARβ (Homo sapiens, UniProt P10826); assay: ligand binding assay, RARβ; settings: read-out: RAR Bind. Ki β
T3 sequence (P10826 1-448 isoform P10826-2): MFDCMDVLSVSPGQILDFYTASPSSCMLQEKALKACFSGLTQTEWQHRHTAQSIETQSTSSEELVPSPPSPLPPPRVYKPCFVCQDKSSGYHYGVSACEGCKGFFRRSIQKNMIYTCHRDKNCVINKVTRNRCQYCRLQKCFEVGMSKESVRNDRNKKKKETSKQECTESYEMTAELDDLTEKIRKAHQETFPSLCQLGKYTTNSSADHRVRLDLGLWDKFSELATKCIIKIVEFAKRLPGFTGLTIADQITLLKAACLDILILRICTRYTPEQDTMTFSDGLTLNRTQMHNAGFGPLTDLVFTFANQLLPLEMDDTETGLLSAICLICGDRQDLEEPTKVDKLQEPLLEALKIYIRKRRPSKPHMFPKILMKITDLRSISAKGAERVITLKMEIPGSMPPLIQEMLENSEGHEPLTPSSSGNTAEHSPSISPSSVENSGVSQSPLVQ
Description: as §1, §2, §3

RARγ = target: T4, RARγ (Homo sapiens, UniProt P13631); assay: ligand binding assay, RARγ; settings: read-out: RAR Bind. Ki γ
T4 sequence (P13631 1-454): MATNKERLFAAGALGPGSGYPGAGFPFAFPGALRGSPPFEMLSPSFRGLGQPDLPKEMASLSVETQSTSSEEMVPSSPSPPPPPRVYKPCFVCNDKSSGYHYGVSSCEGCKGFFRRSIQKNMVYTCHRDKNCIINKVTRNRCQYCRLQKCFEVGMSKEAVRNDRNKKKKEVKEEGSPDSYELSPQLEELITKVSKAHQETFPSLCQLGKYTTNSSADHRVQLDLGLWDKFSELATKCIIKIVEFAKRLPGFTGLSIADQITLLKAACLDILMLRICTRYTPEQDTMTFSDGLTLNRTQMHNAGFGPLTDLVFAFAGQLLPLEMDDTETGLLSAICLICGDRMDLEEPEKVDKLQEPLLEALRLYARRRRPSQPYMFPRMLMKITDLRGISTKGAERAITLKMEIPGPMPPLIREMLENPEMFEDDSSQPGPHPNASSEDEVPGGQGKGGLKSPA
Description: as §1, §2, §3

RXRα [2] = target: T1, RXRα; assay: ligand binding assay, RXRα; settings: read-out: RXR Bind Ki α
Description: as §1, §2, §3

RXRβ [3] = assay: ligand binding assay, RXRβ; settings: read-out: RXR Bind Ki β
Description: as §1, §2, §3

RXRγ [4] = assay: ligand binding assay, RXRγ; settings: read-out: RXR Bind Ki γ
Description: as §1, §2, §3

RXRγ [5] = target: T5, RXRγ (Mus musculus, UniProt P28705); assay: holoreceptor transactivation assay, RXRγ; format: cell-based; settings: for EC50: holoreceptor transactivation, RXRγ, read-out: RXR Trans. EC50 γ; for Emax: relative to 10^-6 M cyclopropyl penta-2,4-dienoic acid reference (RXRs), read-out: % efficacy (RXRγ transactivation)
T5 construct: expressed in transfected cells
T5 sequence (P28705 1-463): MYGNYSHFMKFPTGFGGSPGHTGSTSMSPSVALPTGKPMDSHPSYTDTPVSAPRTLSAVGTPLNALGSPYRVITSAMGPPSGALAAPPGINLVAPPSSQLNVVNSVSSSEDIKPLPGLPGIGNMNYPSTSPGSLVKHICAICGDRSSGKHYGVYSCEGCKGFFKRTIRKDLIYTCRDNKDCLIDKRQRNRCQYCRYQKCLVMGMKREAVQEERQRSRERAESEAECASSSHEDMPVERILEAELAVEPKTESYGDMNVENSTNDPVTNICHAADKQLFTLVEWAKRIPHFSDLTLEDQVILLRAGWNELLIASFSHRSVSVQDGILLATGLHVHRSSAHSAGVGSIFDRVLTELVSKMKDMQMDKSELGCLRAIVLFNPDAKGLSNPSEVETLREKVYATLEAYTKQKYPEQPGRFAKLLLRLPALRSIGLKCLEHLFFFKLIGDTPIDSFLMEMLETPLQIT
Description: as §1, §2, §3

RXRβ [6] = target: T6, RXRβ (Mus musculus, UniProt P28704); assay: holoreceptor transactivation assay, RXRβ; format: cell-based
T6 construct: expressed in transfected cells
T6 sequence (P28704 1-520): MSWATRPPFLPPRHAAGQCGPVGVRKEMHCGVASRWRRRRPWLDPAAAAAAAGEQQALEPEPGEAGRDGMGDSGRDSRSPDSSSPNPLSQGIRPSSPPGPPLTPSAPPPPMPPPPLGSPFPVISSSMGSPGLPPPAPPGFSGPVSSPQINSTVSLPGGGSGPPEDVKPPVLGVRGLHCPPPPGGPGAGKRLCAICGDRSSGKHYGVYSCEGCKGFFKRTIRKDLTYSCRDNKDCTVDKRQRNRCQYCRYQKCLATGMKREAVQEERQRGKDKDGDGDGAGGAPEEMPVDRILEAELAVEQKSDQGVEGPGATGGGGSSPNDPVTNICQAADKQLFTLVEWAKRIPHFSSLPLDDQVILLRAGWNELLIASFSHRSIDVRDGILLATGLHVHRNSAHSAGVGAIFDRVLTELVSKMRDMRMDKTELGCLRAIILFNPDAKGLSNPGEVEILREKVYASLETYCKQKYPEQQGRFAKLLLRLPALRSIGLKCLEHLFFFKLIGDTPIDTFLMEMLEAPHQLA
Description: as §1, §2, §3

| EC50 (RXRα [1]) [nM] | Emax (RXRα [1]) [%] | Ki (RARα) [µM] | Ki (RARβ) [µM] | Ki (RARγ) [µM] | Ki (RXRα [2]) [µM] | Ki (RXRβ [3]) [µM] | Ki (RXRγ [4]) [µM] | EC50 (RXRγ [5]) [nM] | Emax (RXRγ [5]) [%] | EC50 (RXRβ [6]; holoreceptor transactivation, RXRβ, read-out: RXR Trans. EC50 β) [nM] | Emax (RXRβ [6]; relative to 10^-6 M cyclopropyl penta-2,4-dienoic acid reference (RXRs), read-out: % efficacy (RXRβ transactivation)) [%] | Compound |
| --- | --- | --- | --- | --- | --- | --- | --- | --- | --- | --- | --- | --- |
| 1000 | 75 | > 30 | > 30 | > 30 | 9.2 | > 100 | > 100 | – | – | – | – | Cc1cc(N(c2ccc(C(=O)O)cc2)C(C)C)cc2c1OCC2(C)C [Compound 41, 4-[Isopropyl-(3,3,7-trimethyl-2,3-dihydro-benzofuran-5-yl)-amino]-benzoic acid] |
| – | – | > 30 | > 30 | 6.7 | 10 | > 100 | > 100 | – | – | – | – | Cc1cc(N(C)c2ccc(C(=O)O)cc2)cc2c1OCC2(C)C [Compound 26, 4-[Methyl-(3,3,7-trimethyl-2,3-dihydro-benzofuran-5-yl)-amino]-benzoic acid] |
| > 1000 | 25 | 9.4 | > 10 | 4.5 | > 10 | > 10 | > 10 | > 1000 | 15 | – | – | CCc1cc(N(C)c2ccc(C(=O)O)cc2)cc2c1OCC2(C)C [Compound 28, 4-[Methyl-(7-ethyl-3,3-dimethyl-2,3-dihydro-benzofuran-5-yl)-amino]-benzoicacid] |
| 11 | 119 | – | – | – | – | – | – | 18 | 120 | 73 | 113 | CCN(c1ccc(C(=O)O)cc1)c1cc2c(c(C(C)C)c1C)OCC2(C)C [Compound 70, 4-[Ethyl-(7-isopropyl-3,3,6-trimethyl-2,3-dihydro-benzofuran-5-yl)-amino]-benzoic acid] |
